Laboratory results: ChEMBL document CHEMBL2396565, “An epigenetic modifier enhances the production of anti-diabetic and anti-inflammatory sesquiterpenoids from Aspergillus sydowii” (Bioorg Med Chem, 2013)
Activity calls are given as the source filed them. No cut-off for these calls is given here.

Tests used:
[1] = Antiinflammatory activity in human neutrophils assessed as inhibition of fMLP/CB-induced superoxide generation after 5 mins by spectrophotometric analysis; type: functional, cell-based; details: Neutrophil
[2] = Antiinflammatory activity in human neutrophils assessed as inhibition of fMLP/CB-induced elastase release at 10 ug/mL after 5 mins by spectrophotometric analysis relative to control; type: functional; details: Neutrophil
[3] = Antiinflammatory activity in human neutrophils assessed as inhibition of fMLP/CB-induced superoxide generation at 10 ug/mL after 5 mins by spectrophotometric analysis relative to control; type: functional; details: Neutrophil
[4] = Antiinflammatory activity in human neutrophils assessed as inhibition of fMLP/CB-induced elastase release after 5 mins by spectrophotometric analysis; type: functional, cell-based; details: Neutrophil
3T3-L1 [5] = test: Potentiation of insulin-stimulated glucose consumption in mouse 3T3L1 cells assessed as glucose concentration in culture medium at 30 ug/mL after 24 hrs (reference value: 427.4 mg/dL); type: functional
3T3-L1 [6] = test: Potentiation of insulin-stimulated glucose consumption in mouse 3T3L1 cells at 30 ug/mL after 24 hrs; type: functional, cell-based
3T3-L1 [7] = test: Inhibition of lipid accumulation in mouse 3T3L1 cells at 30 ug/mL after 8 days by Oil red O staining-based microscopic analysis relative to control; type: functional; details: 3T3-L1, 192 h

C/C(=C\CCC(C)C)c1ccc(CO)cc1O
IC50 [1]: 6.11 µM
inhibition at 10 µg/mL [2]: 84.3%
inhibition at 10 µg/mL [3]: 97.8%
IC50 [4]: 8.8 µM

COC(=O)[C@@H]1c2c(oc3cc(CO)cc(O)c3c2=O)C=C[C@H]1O
IC50 [1]: 6 µM
inhibition at 10 µg/mL [2]: 98.9%
inhibition at 10 µg/mL [3]: 102%
IC50 [4]: 6.6 µM

CC(C)CCC[C@](C)(O)c1ccc(C(=O)O)cc1O
IC50 [1]: 27.8 µM
Activity (3T3-L1 [5]): 381.4 mg/dL
inhibition at 10 µg/mL [2]: 2.56%
inhibition at 10 µg/mL [3]: 60.2%
IC50 [4]: > 10 µg/mL

C/C(=C\CCC(C)CO)c1ccc(CO)cc1O (stereo unspecified)
IC50 [1]: 21.5 µM
inhibition at 10 µg/mL [2]: 6.68%
inhibition at 10 µg/mL [3]: 71.7%
Activity (3T3-L1 [6]): Active
IC50 [4]: > 10 µg/mL

CO[C@@](C)(CCCC(C)C)c1ccc(CO)cc1O [(7S)-(+)-7-O-METHYLSYDONOL]
IC50 [1]: 13.8 µM
inhibition at 10 µg/mL [2]: 29.8%
inhibition at 10 µg/mL [3]: 69%
Activity (3T3-L1 [6]): Active
IC50 [4]: > 10 µg/mL

CC(C)CCC[C@](C)(O)c1ccc(CO)cc1O [(S)-(+)-SYDONOL]
IC50 [1]: 5.23 µM
Activity (3T3-L1 [5]): 324.6 mg/dL
inhibition at 10 µg/mL [2]: 65.3%
inhibition at 10 µg/mL [3]: 87%
inhibition at 30 µg/mL (3T3-L1 [7]): ≤ 48%
Activity (3T3-L1 [6]): Active
IC50 [4]: 16.4 µM

Cc1cc(O)cc(Oc2cc(C)cc(O)c2)c1 [DIORCINOL]
IC50 [1]: 12.2 µM
inhibition at 10 µg/mL [2]: 39.8%
inhibition at 10 µg/mL [3]: 92%
IC50 [4]: > 10 µg/mL

CNC(=O)c1cc(Oc2ccc(NC(=O)Nc3ccc(Cl)c(C(F)(F)F)c3)cc2)ccn1 [SORAFENIB]
IC50 [1]: 1.27 µM
inhibition at 10 µg/mL [2]: 83%
inhibition at 10 µg/mL [3]: 70.9%
IC50 [4]: 5.62 µM

COC(=O)c1cccc2oc3cc(CO)cc(O)c3c(=O)c12 [SYDOWININ A]
IC50 [1]: > 10 µg/mL
inhibition at 10 µg/mL [2]: 28.7%
inhibition at 10 µg/mL [3]: 38.1%
IC50 [4]: > 10 µg/mL

COC(=O)c1c(O)ccc2oc3cc(CO)cc(O)c3c(=O)c12 [SYDOWININ B]
IC50 [1]: 21.2 µM
inhibition at 10 µg/mL [2]: 85%
inhibition at 10 µg/mL [3]: 66.2%
IC50 [4]: 12.6 µM
